The target in the test is Nonstructural protein 3 (Zika virus, UniProt A0A024AXB9). Nature of the test: Functional biochemical assay to identify treatments for viral infectious disease that targets Zika NS2B-NS3 protease. Utilizing a direct enzyme activity measurement method, reading the fluorescence intensity is used to characterize the relative potency of inhibitors as IC50. Also noted: species or system PRVABC59.
Chain of Nonstructural protein 3 (A0A024AXB9 whole entry): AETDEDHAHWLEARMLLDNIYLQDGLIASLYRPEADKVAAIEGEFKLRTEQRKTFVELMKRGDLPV
`NCc1cccc(NC(=O)[C@@H](NC(=O)OCc2ccccc2)c2cccc(OC[C@H]3CCCO3)c2)c1`: the IC50 was over 99.5 µM.

Consider `CC(=O)N1CCC([C@H](NC(=O)OCc2ccccc2)C(=O)Nc2cccc(CN)c2)CC1`, for which the IC50 is over 99.5 µM. Under `O=c1[nH]c2cccc(N3CCN(Cc4c[nH]c5ccccc45)CC3)c2[nH]1` stands over 99.5 µM; under `FC(F)(F)Oc1cc(Cl)cc2c(CN3CCC(c4cscn4)CC3)c[nH]c12`, over 99.5 µM; under `NCc1cccc(NC(=O)c2cc(Cl)cc(OC3CC3)c2)c1`, 20.6 µM. Under `CCCCSc1ccc(Cl)cc1C(=O)Nc1cccc(CN)c1` stands 22.3 µM.

In turn, `CC(=O)N[C@H](C(=O)N[C@H]1C(=O)O[C@H]1C)c1ccc(OCc2ccccc2)cc1` gave an IC50 of over 99.5 µM. Under `Cc1ncc(C(=O)Nc2cccc(CN)c2)cc1NC(=O)OCc1ccccc1` stands over 99.5 µM; under `NCc1cccc(NC(=O)c2cc(NC(=O)OCc3ccccc3)cc3c2OCCO3)c1`, 89.6 µM. Under `NCc1cccc(NC(=O)[C@H](NC(=O)OCc2ccccc2)C2CCN(C(=O)C3CCOCC3)CC2)c1` stands over 99.5 µM; under `CNCCS(=O)(=O)N1CCC([C@H](NC(=O)OCc2ccccc2)C(=O)Nc2cccc(CN)c2)CC1`, over 99.5 µM. `CSc1cc(F)c(C(=O)Nc2cccc(CN)c2)cc1NC(=O)OCc1ccccc1` returned an IC50 of 83.6 µM. Compound `CCOCC(=O)N1CCC([C@H](NC(=O)OCc2ccccc2)C(=O)Nc2cccc(CN)c2)CC1` yielded an IC50 of over 99.5 µM. Under `O=C1COc2c(cccc2N2CCN(Cc3c[nH]c4ccccc34)CC2)N1` stands 69.8 µM; under `NCc1cccc(NC(=O)[C@H](NC(=O)OCc2ccccc2)C2CCN(C3CCCC3)CC2)c1`, over 99.5 µM.

In the case of `c1ccc(OC2CCN(Cc3c[nH]c4ccccc34)CC2)cc1`, the IC50 is over 99.5 µM.

On to `CCN(C)S(=O)(=O)N1CCC([C@H](NC(=O)OCc2ccccc2)C(=O)Nc2cccc(CN)c2)CC1`, for which the IC50 was over 99.5 µM. As for `CN(C)Cc1nnc(NC(=O)[C@@H](NC(=O)OCc2ccccc2)c2ccc(OCc3ccccc3)cc2)s1`, the IC50 was over 99.5 µM.

In the case of `NCc1cccc(NC(=O)c2cc(NC(=O)OCc3ccccc3)cc(C(N)=O)c2)c1`, the IC50 was over 99.5 µM. Under `CC(C)CC(=O)N1CCC([C@H](NC(=O)OCc2ccccc2)C(=O)Nc2cccc(CN)c2)CC1` stands over 99.5 µM; under `COCCOc1ccc(Cl)cc1C(=O)Nc1cccc(CN)c1`, 77.5 µM; under `c1ccc2c(CN3CCN(c4ccncc4)CC3)c[nH]c2c1`, 98 µM. Under `CC(C)N1CCC([C@H](NC(=O)OCc2ccccc2)C(=O)Nc2cccc(CN)c2)CC1` stands over 99.5 µM; under `NCCc1nsc(NC(=O)c2cc(Cl)cc(NC(=O)OCc3ccccc3)c2)n1`, over 99.5 µM. `O=C(Nc1cc(Cl)cc(C(=O)Nc2nc3c(s2)CCNC3)c1)OCc1ccccc1`: the IC50 amounted to 53.5 µM. Turning to `CN(C)Cc1cccc(C(=O)Nc2cccc(CN)c2)c1`, the IC50 is 23.8 µM. Under `NCc1cccc(NC(=O)Cc2cc(Cl)cc(NC(=O)OCc3ccccc3)c2)c1` stands 46 µM; under `NCc1nc(CNC(=O)c2cc(Cl)cc(NC(=O)OCc3ccccc3)c2)cs1`, over 99.5 µM; under `NCc1cccc(CS(=O)(=O)c2cc(Cl)cc(NC(=O)OCc3ccccc3)c2)c1`, over 99.5 µM. In the case of `Cc1nccn1CCOc1cccc([C@H](NC(=O)OCc2ccccc2)C(=O)Nc2cccc(CN)c2)c1`, the IC50 was over 99.5 µM. Under `NCc1cccc(NC(=O)[C@H](NC(=O)OCc2ccccc2)c2cccc(OCc3ccncc3)c2)c1` stands over 99.5 µM; under `Cc1cc(CN)cc(NC(=O)c2cc(Cl)cc(NC(=O)OCc3ccccc3)c2)c1`, 5.16 µM.

In turn, `NCc1cccc(NC(=O)[C@H](NC(=O)OCc2ccccc2)C2CCN(Cc3ccccc3)CC2)c1` returned a concentration for half-maximal inhibition (IC50) of over 99.5 µM. Under `NCc1cccc(NC(=O)[C@@H](NC(=O)OCc2ccccc2)c2ccc(OC[C@H]3CCCCO3)cc2)c1` stands over 99.5 µM; under `CCN1CC[C@H](COc2cccc([C@H](NC(=O)OCc3ccccc3)C(=O)Nc3cccc(CN)c3)c2)C1`, over 99.5 µM; under `NC12CCC(CNC(=O)c3cc(Cl)cc(NC(=O)OCc4ccccc4)c3)(CC1)OC2`, 33.1 µM. Under `Clc1ccc(-c2cc(CN3CCC(c4cscn4)CC3)[nH]n2)cc1` stands over 99.5 µM; under `NCc1cccc(NC(=O)c2cc(Cl)cc(F)c2F)c1`, 59.3 µM. Under `CCS(=O)(=O)c1ccc(Cl)cc1C(=O)Nc1cccc(CN)c1` stands 82.1 µM; under `Cn1cc(C(=O)N2CCC([C@H](NC(=O)OCc3ccccc3)C(=O)Nc3cccc(CN)c3)CC2)cn1`, over 99.5 µM.

`Cn1nc([C@@H]2CCCN2)nc1NC(=O)c1cc(Cl)cc(NC(=O)OCc2ccccc2)c1` displayed an IC50 of over 99.5 µM. On to `O=C(Nc1cc(Cl)cc(C(=O)Nc2n[nH]c3c2CNC32CC2)c1)OCc1ccccc1`, for which the IC50 is over 99.5 µM. Under `CC(C)(C#N)CS(=O)(=O)N1CCC([C@H](NC(=O)OCc2ccccc2)C(=O)Nc2cccc(CN)c2)CC1` stands over 99.5 µM; under `NCCCc1ccnc(NC(=O)c2cc(Cl)cc(NC(=O)OCc3ccccc3)c2)c1`, 18.4 µM; under `CN1CCC[C@H]1COc1cccc([C@@H](NC(=O)OCc2ccccc2)C(=O)Nc2cccc(CN)c2)c1`, over 99.5 µM. Under `NCc1cccc(NC(=O)c2cc(NC(=O)OCc3ccccc3)cc(C(F)(F)F)c2F)c1` stands over 99.5 µM; under `O=c1ccc(N2CCN(Cc3c[nH]c4ccccc34)CC2)n[nH]1`, over 99.5 µM. `NCc1cccc(NC(=O)c2cc(Cl)cc(C3CC3)c2)c1` returned an IC50 of 8.27 µM.

`NCc1cccc(NC(=O)c2cc3c(c(NC(=O)OCc4ccccc4)c2)OCC3)c1` displayed an IC50 of 78.4 µM. Under `O=C(Nc1cc(Cl)cc(C(=O)Nc2cnc3n2CCNC3)c1)OCc1ccccc1` stands over 99.5 µM; under `NCc1cccc(NC(=O)c2cc(Cl)cc(N3CCCC3=O)c2)c1`, 11.5 µM. Under `NCc1cccc(NC(=O)[C@@H]2CCC[C@@H](NC(=O)OCc3ccccc3)C2)c1` stands over 99.5 µM; under `Cc1c(CN)cccc1NC(=O)c1cc(Cl)cc(NC(=O)OCc2ccccc2)c1`, 44.7 µM; under `O=C(Nc1cc(Cl)cc(C(=O)NCc2n[nH]c3c2CNCC3)c1)OCc1ccccc1`, over 99.5 µM. Under `CC(C)N1C(=O)C[C@H](C(=O)Nc2cccc(CN)c2)[C@H]1c1ccc(Cl)c(F)c1` stands over 99.5 µM; under `O=C(N[C@@H](C(=O)Nc1n[nH]c2c1CNC21CC1)c1ccc(OCc2ccccc2)cc1)OCc1ccccc1`, over 99.5 µM; under `c1cnc2[nH]cc(C3CCN(Cc4c[nH]c5ccncc45)CC3)c2c1`, 73.3 µM. For the compound `Cn1nc(NC(=O)[C@@H](NC(=O)OCc2ccccc2)c2ccc(OCc3ccccc3)cc2)c2c1CNC2`, the IC50 was over 99.5 µM.

On to `CN(C)Cc1cccc(NC(=O)[C@H](NC(=O)OCc2ccccc2)c2ccc(OCc3ccccc3)cc2)c1`, for which the IC50 is over 99.5 µM. Under `NCc1cccc(NC(=O)[C@H](NC(=O)OCc2ccccc2)c2cccc(OC[C@H]3COCCO3)c2)c1` stands over 99.5 µM; under `NCc1cccc(C(=O)Nc2cc(Cl)cc(NC(=O)OCc3ccccc3)c2)c1`, 16.6 µM. `NCc1ccc(O)c(NC(=O)c2cc(Cl)cc(NC(=O)OCc3ccccc3)c2)c1` had an IC50 of 18.1 µM. The IC50 values of the last two compounds are within 1.5-fold of each other.

`O=C(Nc1cc(Cl)cc(C(=O)Nc2nc3c(s2)CNC3)c1)OCc1ccccc1` came in with an IC50 of 85.7 µM. Consider `C#Cc1cc(NC(=O)OCc2ccccc2)cc(C(=O)Nc2cccc(CN)c2)c1`, for which the half-inhibitory concentration (IC50) turned out to be 36.4 µM. This IC50 is about 2.4-fold lower than that of the compound before.

The compound `c1nc(C2CCN(Cc3cc(C4CCOCC4)[nH]n3)CC2)cs1` yielded an IC50 of over 99.5 µM. Under `COc1cc(NC(=O)OCc2ccccc2)cc(C(=O)Nc2cccc(CN)c2)c1OC` stands over 99.5 µM; under `CN(C)CCOc1ccc(Cl)cc1C(=O)Nc1cccc(CN)c1`, 25.6 µM. Under `N#Cc1cccc2[nH]cc(CN3CCC(c4cscn4)CC3)c12` stands over 99.5 µM; under `O=C1O[C@H]2CCN(Cc3ccc(OCc4ccccc4)cc3)C[C@H]12`, over 99.5 µM.

In turn, `O=C1Nc2ncccc2C[C@H]1NCc1n[nH]c2ccccc12` registered an IC50 of over 99.5 µM.

With `Cc1ccc(NC(=O)c2cc(Cl)cc(NC(=O)OCc3ccccc3)c2)cc1CN`, the IC50 came out at 10.9 µM.

`c1cnc2[nH]cc(C3CCN(Cc4c[nH]c5cnccc45)CC3)c2c1` came in with an IC50 of over 99.5 µM. Under `CN1C(=O)C[C@H](C(=O)Nc2cccc(CN)c2)[C@H]1c1ccc(Cl)c(Cl)c1` stands over 99.5 µM; under `c1cncc(-c2cc(CN3CCC(c4cscn4)CC3)n[nH]2)c1`, over 99.5 µM; under `NCc1cccc(S(=O)(=O)Cc2cc(Cl)cc(NC(=O)OCc3ccccc3)c2)c1`, 92.3 µM. `Cc1ncc(NC(=O)OCc2ccccc2)cc1C(=O)Nc1cccc(CN)c1` yielded an IC50 of over 99.5 µM.

With `NCc1cccc(NC(=O)c2cc(N)cc(NC(=O)OCc3ccccc3)c2)c1`, the IC50 was over 99.5 µM. Turning to `CCN1CC[C@@H](COc2ccc([C@@H](NC(=O)OCc3ccccc3)C(=O)Nc3cccc(CN)c3)cc2)C1`, the IC50 is over 99.5 µM. The compound `NCc1cn(CCNC(=O)c2cc(Cl)cc(NC(=O)OCc3ccccc3)c2)nn1` had an IC50 of over 99.5 µM. Under `NCc1cccc(NC(=O)c2cc(Cl)ccc2NS(=O)(=O)c2ccccc2)c1` stands over 99.5 µM; under `Cc1ocnc1COc1cccc([C@H](NC(=O)OCc2ccccc2)C(=O)Nc2cccc(CN)c2)c1`, over 99.5 µM. Take `NC[C@@H]1CN(c2cc(N3CC[C@H](N)C3)cc3c2COB3O)C(=O)O1`: the IC50 amounted to 72 µM. Under `O=C(O)c1cc(Cl)ccc1NS(=O)(=O)c1ccc(Nc2ccccc2F)nc1` stands 46.7 µM; under `N#Cc1cccc(N2CCN(Cc3c[nH]c4ccccc34)CC2)c1`, 85.6 µM. Under `NCc1cccc(NC(=O)[C@H](NC(=O)OCc2ccccc2)C2CCN(CCc3ccccc3)CC2)c1` stands over 99.5 µM.

Regarding `Cn1ncc(CN2CCC([C@H](NC(=O)OCc3ccccc3)C(=O)Nc3cccc(CN)c3)CC2)n1`, the IC50 was over 99.5 µM. `NCc1cccc(NC(=O)c2cc(Cl)cc3c2CCC3)c1` gave an IC50 of 5.98 µM. Under `c1ccc([C@@H]2C[C@H]3C[C@@H]2C[C@H]3NCc2n[nH]c3ccccc23)cc1` stands over 99.5 µM.
